Key:
[1] = molecular target: 3',5'-cyclic-AMP phosphodiesterase 4D (Homo sapiens, UniProt Q08499); test: Inhibition of PDE4D by luciferase-coupled assay
[2] = molecular target: 3',5'-cyclic-AMP phosphodiesterase 4B (Homo sapiens, UniProt Q07343); test: Inhibition of PDE4B by luciferase-coupled assay
[3] = Inhibition of bovine PDE3 by scintillation proximity assay; design: species or system Bos taurus
[4] = molecular target: cGMP-specific 3',5'-cyclic phosphodiesterase (Homo sapiens, UniProt O76074); test: Inhibition of human PDE5 by scintillation proximity assay
[5] = Selectivity for PDE4B over PDE4D

3',5'-cyclic-AMP phosphodiesterase 4D, sequence (Q08499 whole entry): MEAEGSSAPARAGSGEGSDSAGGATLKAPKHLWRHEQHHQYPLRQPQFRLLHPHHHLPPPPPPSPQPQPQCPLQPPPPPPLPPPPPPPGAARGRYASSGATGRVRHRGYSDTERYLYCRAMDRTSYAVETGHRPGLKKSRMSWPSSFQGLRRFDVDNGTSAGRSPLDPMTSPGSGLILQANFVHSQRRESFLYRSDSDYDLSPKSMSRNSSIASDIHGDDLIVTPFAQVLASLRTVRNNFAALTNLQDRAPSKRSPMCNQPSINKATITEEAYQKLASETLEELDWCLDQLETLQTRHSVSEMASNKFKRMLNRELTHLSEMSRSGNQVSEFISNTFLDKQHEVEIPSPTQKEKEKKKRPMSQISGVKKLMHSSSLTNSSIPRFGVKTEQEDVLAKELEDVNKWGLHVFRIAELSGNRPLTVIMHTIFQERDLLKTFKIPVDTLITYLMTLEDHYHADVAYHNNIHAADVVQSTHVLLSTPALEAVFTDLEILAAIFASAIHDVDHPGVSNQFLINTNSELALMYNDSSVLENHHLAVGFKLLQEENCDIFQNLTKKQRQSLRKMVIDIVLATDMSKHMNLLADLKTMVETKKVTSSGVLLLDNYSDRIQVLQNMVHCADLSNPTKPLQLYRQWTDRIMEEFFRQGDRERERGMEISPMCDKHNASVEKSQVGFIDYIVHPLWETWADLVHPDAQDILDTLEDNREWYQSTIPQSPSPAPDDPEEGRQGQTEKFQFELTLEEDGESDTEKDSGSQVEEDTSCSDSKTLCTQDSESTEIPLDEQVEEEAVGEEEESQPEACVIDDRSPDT
3',5'-cyclic-AMP phosphodiesterase 4B, sequence (Q07343 whole entry): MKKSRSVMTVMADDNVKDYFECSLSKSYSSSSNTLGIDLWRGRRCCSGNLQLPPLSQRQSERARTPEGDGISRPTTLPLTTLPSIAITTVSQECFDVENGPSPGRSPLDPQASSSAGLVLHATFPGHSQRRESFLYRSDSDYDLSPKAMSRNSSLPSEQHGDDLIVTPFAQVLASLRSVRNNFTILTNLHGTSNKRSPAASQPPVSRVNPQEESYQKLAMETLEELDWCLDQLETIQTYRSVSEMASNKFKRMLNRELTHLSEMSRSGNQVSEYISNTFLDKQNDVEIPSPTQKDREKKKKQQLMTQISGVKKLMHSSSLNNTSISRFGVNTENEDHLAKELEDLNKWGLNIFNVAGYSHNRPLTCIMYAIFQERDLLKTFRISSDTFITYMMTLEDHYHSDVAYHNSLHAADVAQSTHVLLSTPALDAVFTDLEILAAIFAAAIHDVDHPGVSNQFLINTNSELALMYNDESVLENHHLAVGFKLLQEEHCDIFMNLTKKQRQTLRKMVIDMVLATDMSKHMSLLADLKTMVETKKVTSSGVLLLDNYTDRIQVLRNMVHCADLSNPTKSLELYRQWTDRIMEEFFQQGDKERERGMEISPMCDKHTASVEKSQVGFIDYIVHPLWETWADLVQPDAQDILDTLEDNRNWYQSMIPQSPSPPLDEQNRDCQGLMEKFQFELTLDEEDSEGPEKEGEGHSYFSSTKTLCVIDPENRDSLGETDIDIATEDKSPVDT

IC50 [1] [nM]	IC50 [2] [nM]	pIC50 [3]	IC50 [4] [nM]	Selectivity Index [5]	SMILES
2510	100	–	–	–	CCCCCC1CCc2c(sc(NC(=O)c3ccccc3[N+](=O)[O-])c2C(N)=O)C1 (stereo unspecified)
126	25.1	–	–	–	CC(C)(C)C1CCc2c(sc(NC(=O)c3ccccc3[N+](=O)[O-])c2C(N)=O)C1 (stereo unspecified)
> 2510	631	–	–	–	CC1CCc2c(sc(NC(=O)c3cccc([N+](=O)[O-])c3)c2C(N)=O)C1 (stereo unspecified)
1580	398	–	–	–	NC(=O)c1c(NC(=O)c2ccccc2[N+](=O)[O-])sc2c1CCC(c1ccccc1)C2 (stereo unspecified)
6310	2000	–	–	–	CC1CCc2sc(NC(=O)c3ccccc3[N+](=O)[O-])c(C(N)=O)c2C1 (stereo unspecified)
2510	5010	–	–	–	Cc1cccc(C)c1C1CCCc2sc(NC(=O)c3ccccc3[N+](=O)[O-])c(C(N)=O)c21 (stereo unspecified)
> 2510	> 2510	–	–	–	CC1CCc2c(sc(NC(=O)c3ccc([N+](=O)[O-])cc3)c2C(N)=O)C1 (stereo unspecified)
398	50.1	–	–	–	CC1(C)CCc2c(sc(NC(=O)c3ccccc3[N+](=O)[O-])c2C(N)=O)C1
–	> 10000	–	–	–	CNC(=O)c1c(NC(=O)c2c(F)cccc2F)sc2c1CCC(C(C)(C)C)C2 (stereo unspecified)
31600	5010	–	–	–	CC1CCCc2sc(NC(=O)c3ccccc3[N+](=O)[O-])c(C(N)=O)c21 (stereo unspecified)
6310	1260	–	–	–	CC(C)(C)C1CCc2sc(NC(=O)c3ccccc3[N+](=O)[O-])c(C(N)=O)c2C1 (stereo unspecified)
–	79.4	–	–	–	CC(C)(C)C1CCc2c(sc(NC(=O)c3c(F)cccc3F)c2C(N)=O)C1 (stereo unspecified)
316	200	< 5	> 10000	–	CC(C)(C)C1CCc2c(sc(NC(=O)c3ccncc3)c2C(N)=O)C1 (stereo unspecified)
6310	1260	–	–	–	NC(=O)c1c(NC(=O)c2ccccc2[N+](=O)[O-])sc2c1CCCC2
126	10	–	–	10	CCC1CCc2c(sc(NC(=O)c3ccccc3[N+](=O)[O-])c2C(N)=O)C1 (stereo unspecified)

Source: ChEMBL document CHEMBL1155252 (Bioorg Med Chem, 2009)
